Read-outs that look alike come from different tables or passages of the source.
Experiments:
Puccinia recondita = test: Example F: in vivo test on Puccinia recondita (wheat brown rust); conditions: 240 h, wheat plants sprayed 24 hours before inoculation, scored after 10 days, read-out: % Wirkungsgrad
Description: In Vivo Test on Puccinia Recondita (Wheat Brown Rust) An aqueous suspension of the active substance was prepared by homogenization of a mixture of acetone/Tween/dimethyl sulphoxide and subsequent dilution with water to the desired concentration. Wheat plants (variety: Scipion) are sown in cultivation dishes on a peat-pozzolanic earth substrate (50/50) at 12° C. and sprayed at the first-leaf stage (10 cm size) with the aqueous suspension described above. As a control, plants are sprayed with an aqueous solution with no active substance. After 24 hours the plants are inoculated by spraying with an aqueous suspension of Puccinia recondita spores (100,000 spores per ml). The spores are derived from a 10 day-old infected wheat crop and are suspended in water with 2.5 ml/l Tween. […] After 10 days they are scored in comparison with the control plants.

Plasmopara viticola = test: Example N: in vivo test on Plasmopara viticola (downy mildew, vine/protective); conditions: 144 h, vine, protective, assessment 6 days after inoculation, read-out: % Wirkungsgrad
In short: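 Assessment of downy mildew on vines took place 6 days post-inoculation, after 1 day of moist incubation. Before infection, the young plants received a protective spray of compound emulsified with alkylaryl polyglycol ethers and diluted with water to the stated application rate.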

Venturia inaequalis = test: Example O: in vivo test on Venturia inaequalis (apple scab/protective); conditions: 240 h, protective, assessment 10 days after inoculation, read-out: % Wirkungsgrad
In short: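 Young plants received a preventive spray of compound formulated as an emulsifier-containing aqueous dilution at the given application rate, then were inoculated with apple scab fungus. Disease was scored 10 days post-inoculation.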

Botrytis cinerea = test: Example P: in vivo test on Botrytis cinerea (gray mould on bean/protective); conditions: 48 h, bean, protective, 250 ppm active substance, assessed 2 days after inoculation, read-out: % Wirkungsgrad (activity level)
In short: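 Infection blotch size on leaves was scored 2 days after placing 2 Botrytis-colonised agar pieces per leaf. Inoculation followed drying of a protective spray applied to young plants at the stated dosage. Spray was prepared by diluting compound with solvent and alkylaryl polyglycol ether emulsifier in water.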

Leptosphaeria nodorum = test: Example Q: in vivo test on Leptosphaeria nodorum (glume blotch in wheat/protective); conditions: Parastagonospora nodorum, 192 h, wheat, protective, assessment 8 days after inoculation, read-out: % Wirkungsgrad
In short: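 Protective test: young wheat plants sprayed with compound formulated in N,N-dimethylacetamide plus alkylaryl polyglycol ether emulsifier, diluted in water to the stated dose. After drying, plants inoculated with L. nodorum spore suspension; disease assessed 8 days post-inoculation.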

Septoria tritici = test: Example R: in vivo test on Septoria tritici (leaf blotch in wheat/protective); conditions: Zymoseptoria tritici, 504 h, wheat, protective, 1000 ppm active substance, assessed 21 days after inoculation, read-out: % Wirkungsgrad (activity level)
In short: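 Protective test: young wheat plants sprayed with compound in N,N-dimethylacetamide/alkylaryl polyglycol ether emulsifier diluted in water, dried, then inoculated with Septoria tritici spore suspension. Disease assessed 21 days after inoculation.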

Fusarium graminearum [1] = test: whole plant or invertebrate; format: in vivo; conditions: in Hordeum vulgare, 120 h, read-out: % Wirkungsgrad (activity level)
physchem = conditions: LogPA (logP of the stated pure compound or, in a mixture, of the main isomer, 1-substituted 3-aryl-1H-pyrazole)
[2] = test system: Mycosphaerella graminicola; test: Example G: in vivo test on Mycosphaerella graminicola (wheat leaf blotch disease); conditions: Zymoseptoria tritici, wheat plants sprayed 24 hours before inoculation, scored after 21 to 28 days, read-out: % Wirkungsgrad
In short: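 Scipion wheat at first-leaf stage (10 cm) was sprayed with aqueous active-substance suspension, then inoculated 24 hours later with Mycosphaerella graminicola spores (500,000 spores per ml) from 7 day-old culture. Disease was scored after 21 to 28 days against untreated sprayed controls.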

Fusarium graminearum [3] = test: microbe, parasite or virus in culture; format: cell-based
Aspergillus parasiticus = test: microbe, parasite or virus in culture; format: cell-based; conditions: 168 h
Alternaria solani = test: Example M: in vivo test on Alternaria solani (leaf blotch disease/tomato/protective); conditions: 168 h, tomato, protective, 500 ppm active substance, assessed 7 days after inoculation, read-out: % Wirkungsgrad (activity level)
In short: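 Alternaria solani infection on tomato scored 7 days post-inoculation. Before inoculation, young plants received a protective spray at the stated application dose; formulation was compound mixed with N,N-dimethylformamide and emulsifier, water-diluted.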

[4] = 72 h, read-out: % Inhibition des Pilzwachstums bei 50 μM
[5] = 168 h, read-out: % Inhibition der DON/AcDON produktion bei 50 μM
[6] = 50 μM, 7 days at 20° C., read-out: Inhibition der Aflatoxin produktion bei 50 μM
[7] = read-out: % Inhibition des Pilzwachstums bei 50 μM

Structure (SMILES): CC(C)Cn1cc(-c2ccncc2)c(-c2ccc(F)cc2)n1 [Compound 1]
- pest or weed control at 500 ppm (Puccinia recondita): 89%
- pest or weed control at 100 ppm (Plasmopara viticola): 100%
- pest or weed control at 100 ppm (Venturia inaequalis): 99%
- pest or weed control at 250 ppm (Botrytis cinerea): 99%
- pest or weed control at 1000 ppm (Leptosphaeria nodorum): 100%
- pest or weed control at 1000 ppm (Septoria tritici): 100%
- pest or weed control at 1000 ppm (Fusarium graminearum [1]): 100%
- chromatographic logP (physchem): 1.63

Structure (SMILES): CC(C)C(=O)Nc1cc(-c2cn(C(C)C)nc2-c2ccc(F)cc2)ccn1 [Compound 84]
- pest or weed control at 500 ppm (Puccinia recondita): 78%
- pest or weed control at 500 ppm [2]: 98%
- inhibition at 50 µM (Fusarium graminearum [3]; [4]): 92%
- inhibition at 50 µM (Fusarium graminearum [3]; [5]): 99%
- inhibition at 50 µM (Aspergillus parasiticus; [6]): 100%
- inhibition at 50 µM (Aspergillus parasiticus; [7]): 98%
- pest or weed control at 500 ppm (Alternaria solani): 95%
- pest or weed control at 100 ppm (Plasmopara viticola): 98%
- pest or weed control at 100 ppm (Venturia inaequalis): 100%
- pest or weed control at 250 ppm (Botrytis cinerea): 99%
- pest or weed control at 1000 ppm (Leptosphaeria nodorum): 100%
- pest or weed control at 1000 ppm (Septoria tritici): 100%
- pest or weed control at 1000 ppm (Fusarium graminearum [1]): 100%
- chromatographic logP (physchem): 2.5

Structure (SMILES): CCC(=O)Nc1cc(-c2cn(C(C)C)nc2-c2ccc(F)cc2)ccn1 [Compound 85]
- inhibition at 50 µM (Fusarium graminearum [3]; [4]): 100%
- inhibition at 50 µM (Fusarium graminearum [3]; [5]): 99%
- inhibition at 50 µM (Aspergillus parasiticus; [6]): 100%
- inhibition at 50 µM (Aspergillus parasiticus; [7]): 98%
- pest or weed control at 500 ppm (Alternaria solani): 100%
- pest or weed control at 100 ppm (Plasmopara viticola): 94%
- pest or weed control at 100 ppm (Venturia inaequalis): 88%
- pest or weed control at 250 ppm (Botrytis cinerea): 100%
- pest or weed control at 1000 ppm (Leptosphaeria nodorum): 100%
- pest or weed control at 1000 ppm (Septoria tritici): 100%
- pest or weed control at 1000 ppm (Fusarium graminearum [1]): 100%
- chromatographic logP (physchem): 2.15

Structure (SMILES): CC(C)n1cc(-c2ccnc(NC(=O)C3CC3)c2)c(-c2ccc(F)cc2)n1 [Compound 86]
- pest or weed control at 500 ppm [2]: 94%
- inhibition at 50 µM (Fusarium graminearum [3]; [4]): 94%
- inhibition at 50 µM (Fusarium graminearum [3]; [5]): 98%
- inhibition at 50 µM (Aspergillus parasiticus; [6]): 100%
- inhibition at 50 µM (Aspergillus parasiticus; [7]): 97%
- pest or weed control at 100 ppm (Plasmopara viticola): 84%
- pest or weed control at 100 ppm (Venturia inaequalis): 96%
- pest or weed control at 250 ppm (Botrytis cinerea): 100%
- pest or weed control at 1000 ppm (Leptosphaeria nodorum): 100%
- pest or weed control at 1000 ppm (Septoria tritici): 100%
- pest or weed control at 1000 ppm (Fusarium graminearum [1]): 100%
- chromatographic logP (physchem): 2.07

Source: patent US20110183978A1, “Phenylpyri(mi)dinylazoles” (Bayer CropScience AG, priority 2009, published 2011)
